Test results as given in ChEMBL document CHEMBL1201862, “PubChem BioAssay data set” (2004).
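The compound was tested at five concentrations on cells cultured in 96-well plates, with a 48-hour exposure period. The concentration for 50% growth inhibition is given as GI50.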 The source made the active and inactive calls. Cut-off read from the data, not from the text of the source: active = GI50 up to about 1.1 µM and inactive = higher.

Key:
Test in all cases: growth of human tumour cells (NCI), 48 h
[1] = system: NCI/ADR-RES
[2] = system: TK-10
[3] = system: MDA-N
[4] = system: U-251
[5] = system: RXF 393
[6] = system: SNB-75
[7] = system: SK-OV-3
[8] = system: CCRF-CEM
[9] = system: DU-145
[10] = system: A498
[11] = system: HL-60
[12] = system: EKVX
[13] = system: MOLT-4
[14] = system: UO-31
[15] = system: KM12
[16] = system: SR
[17] = system: CAKI-1
[18] = system: MDA-MB-435
[19] = system: NCI-H522
[20] = system: SNB-19

Compound | GI50 [1] | GI50 [2] | GI50 [3] | GI50 [4] | GI50 [5] | GI50 [6] | GI50 [7] | GI50 [8] | GI50 [9] | GI50 [10] | GI50 [11] | GI50 [12] | GI50 [13] | GI50 [14] | GI50 [15] | GI50 [16] | GI50 [17] | GI50 [18] | GI50 [19] | GI50 [20]
O=C1Nc2ccc(Br)cc2/C1=N/Nc1ccccc1[N+](=O)[O-] | 15.8 µM (inactive) | 10.3 µM (inactive) | 17 µM (inactive) | 35.4 µM (inactive) | 32.7 µM (inactive) | 15.8 µM (inactive) | 24 µM (inactive) | 12.5 µM (inactive) | 12.2 µM (inactive) | 28 µM (inactive) | 33.2 µM (inactive) | 6.31 µM (inactive) | 42.9 µM (inactive) | 16.9 µM (inactive) | 8.2 µM (inactive) | 10.2 µM (inactive) | 14.2 µM (inactive) | 21.1 µM (inactive) | 15.5 µM (inactive) | 28.6 µM (inactive)
CC(CN1CC(=O)NC(=O)C1)N1CC(=O)NC(=O)C1 (stereo not drawn) [RAZOXANE] | 243 µM (inactive) | 168 µM (inactive) | 182 µM (inactive) | 201 µM (inactive) | 473 µM (inactive) | 306 µM (inactive) | 299 µM (inactive) | 35.5 µM (inactive) | 160 µM (inactive) | 157 µM (inactive) | 53.1 µM (inactive) | 209 µM (inactive) | 34.9 µM (inactive) | 349 µM (inactive) | 398 µM (inactive) | 155 µM (inactive) | 109 µM (inactive) | 485 µM (inactive) | 90.8 µM (inactive) | 313 µM (inactive)
C[C@H]1C2Cc3cc(N)ccc3[C@@]1(C)CCN2CCc1ccccc1 | 42.3 µM (inactive) | 78 µM (inactive) | 66.2 µM (inactive) | 43.8 µM (inactive) | 33.3 µM (inactive) | 85.1 µM (inactive) | 24 µM (inactive) | 33.2 µM (inactive) | > 100 µM (inactive) | 29.4 µM (inactive) | 28.9 µM (inactive) | 40.6 µM (inactive) | 20.4 µM (inactive) | 52 µM (inactive) | 37.5 µM (inactive) | 19.3 µM (inactive) | 64.4 µM (inactive) | 41.9 µM (inactive) | 13.2 µM (inactive) | > 100 µM (inactive)
CCOC(=O)C1=CN(Cc2ccccc2)C2ON=C(c3ccc(Cl)cc3)C2C1 (stereo not drawn) | > 54.6 µM (inactive) | > 60.5 µM (inactive) | 17.9 µM (inactive) | 13.5 µM (inactive) | 38.6 µM (inactive) | 44.3 µM (inactive) | > 63.7 µM (inactive) | 9.1 µM (inactive) | > 55 µM (inactive) | > 42.6 µM (inactive) | 23.4 µM (inactive) | 20.6 µM (inactive) | 5.4 µM (inactive) | 26.9 µM (inactive) | 48.2 µM (inactive) | > 23.9 µM (inactive) | > 52.6 µM (inactive) | 29 µM (inactive) | 10.4 µM (inactive) | > 100 µM (inactive)
S=C(N/N=C(/c1ccccc1)c1ccccn1)N(Cc1ccccn1)Cc1ccccn1 | 0.0838 µM (active) | 0.236 µM (active) | 1.31 µM (inactive) | < 0.016 µM (active) | 1 µM (active) | 0.708 µM (active) | 0.472 µM (active) | < 0.01 µM (active) | 0.564 µM (active) | 0.521 µM (active) | < 0.0443 µM (active) | 0.0608 µM (active) | < 0.0302 µM (active) | 0.356 µM (active) | 0.432 µM (active) | 0.906 µM (active) | 0.0822 µM (active) | 0.841 µM (active) | < 0.0247 µM (active) | 0.444 µM (active)
C=CC(C)(C)NC(C(=O)N1CCC[C@H]1c1nc(-c2nc(C(=O)OCC=C(C)C)c(C)o2)c(C)o1)C(C)C (stereo partly drawn) | > 55 µM (inactive) | > 57.8 µM (inactive) | 23.9 µM (inactive) | > 48.2 µM (inactive) | > 55.2 µM (inactive) | 33.3 µM (inactive) | > 83 µM (inactive) | > 59.7 µM (inactive) | > 84.7 µM (inactive) | 47.1 µM (inactive) | 17.1 µM (inactive) | > 52 µM (inactive) | 47.5 µM (inactive) | 21.8 µM (inactive) | > 54.2 µM (inactive) | 32.2 µM (inactive) | > 55.2 µM (inactive) | > 45.1 µM (inactive) | > 100 µM (inactive) | > 48.6 µM (inactive)
NS(=O)(=O)c1ccc(NC(=O)c2ccc3nc4ccccc4c(Nc4ccc(S(N)(=O)=O)cc4)c3c2)cc1 | > 100 µM (inactive) | > 100 µM (inactive) | > 100 µM (inactive) | 62.8 µM (inactive) | > 100 µM (inactive) | > 100 µM (inactive) | > 100 µM (inactive) | > 100 µM (inactive) | > 100 µM (inactive) | > 100 µM (inactive) | > 100 µM (inactive) | > 100 µM (inactive) | > 100 µM (inactive) | > 100 µM (inactive) | 12.1 µM (inactive) | > 100 µM (inactive) | > 100 µM (inactive) | > 100 µM (inactive) | > 100 µM (inactive) | 42.1 µM (inactive)
SC1CCCN(Cc2ccccc2)C1 (stereo not drawn) | > 100 µM (inactive) | 69.7 µM (inactive) | 59 µM (inactive) | 33.4 µM (inactive) | > 100 µM (inactive) | > 100 µM (inactive) | > 100 µM (inactive) | – | > 100 µM (inactive) | 65.2 µM (inactive) | 34.8 µM (inactive) | > 100 µM (inactive) | 26.5 µM (inactive) | 54.2 µM (inactive) | 34.1 µM (inactive) | 27.9 µM (inactive) | 74.1 µM (inactive) | 31.6 µM (inactive) | 35.7 µM (inactive) | > 100 µM (inactive)
COc1ccc(/C=N\N(C)Cc2cccc3ccsc23)cc1 | > 100 µM (inactive) | > 100 µM (inactive) | 70.6 µM (inactive) | > 100 µM (inactive) | > 100 µM (inactive) | > 100 µM (inactive) | > 100 µM (inactive) | > 100 µM (inactive) | > 100 µM (inactive) | > 100 µM (inactive) | > 100 µM (inactive) | > 100 µM (inactive) | 46.8 µM (inactive) | > 100 µM (inactive) | > 100 µM (inactive) | 90.2 µM (inactive) | > 100 µM (inactive) | > 100 µM (inactive) | > 100 µM (inactive) | > 100 µM (inactive)
CC(=O)c1c2c(cc3c1CC1(C3)Cc3ccc4c(c3C1=O)CCC4)CCC2 (stereo not drawn) | 2.07 µM (inactive) | 11.1 µM (inactive) | 13.8 µM (inactive) | 56.9 µM (inactive) | 9.64 µM (inactive) | 16.9 µM (inactive) | > 100 µM (inactive) | 19.3 µM (inactive) | 99.3 µM (inactive) | > 100 µM (inactive) | 3.58 µM (inactive) | 7.13 µM (inactive) | 22.3 µM (inactive) | 55.5 µM (inactive) | 17.2 µM (inactive) | 4.61 µM (inactive) | 14.9 µM (inactive) | 8.05 µM (inactive) | 0.74 µM (active) | > 100 µM (inactive)
CC1CC[C@@]2(OC1)OC1C[C@H]3[C@@H]4CC=C5C[C@@H](OC6OC(CO)C(OC7OC(CO)C(O)C(O)C7O)C(O)C6OC6OC(C)C(O)C(O)C6O)CC[C@]5(C)[C@H]4CC[C@]3(C)C1[C@@H]2C (stereo partly drawn) | 2.07 µM (inactive) | 1.04 µM (active) | 0.863 µM (active) | 0.493 µM (active) | 0.431 µM (active) | 2.07 µM (inactive) | 3.3 µM (inactive) | 0.617 µM (active) | 0.476 µM (active) | 0.611 µM (active) | 0.753 µM (active) | 0.544 µM (active) | 0.434 µM (active) | 0.48 µM (active) | 0.547 µM (active) | 0.402 µM (active) | 0.76 µM (active) | 0.558 µM (active) | 0.998 µM (active) | 1.2 µM (inactive)
Cc1ccc(S(=O)(=O)Nc2nc3ccccc3c(=O)n2C2CCCCC2)cc1 | > 100 µM (inactive) | > 100 µM (inactive) | > 100 µM (inactive) | 90.2 µM (inactive) | 68.2 µM (inactive) | 53.1 µM (inactive) | > 100 µM (inactive) | > 100 µM (inactive) | > 100 µM (inactive) | > 100 µM (inactive) | 57.9 µM (inactive) | > 100 µM (inactive) | > 100 µM (inactive) | > 100 µM (inactive) | > 100 µM (inactive) | > 100 µM (inactive) | 81.3 µM (inactive) | > 100 µM (inactive) | 41.7 µM (inactive) | > 100 µM (inactive)
Oc1ccccc1/C=N/c1ccc(-c2nc3ccccc3[nH]2)cc1 | 4.53 µM (inactive) | > 100 µM (inactive) | 54.7 µM (inactive) | 49.9 µM (inactive) | 29.7 µM (inactive) | 42.1 µM (inactive) | > 100 µM (inactive) | 22.5 µM (inactive) | 65.8 µM (inactive) | > 100 µM (inactive) | 25.2 µM (inactive) | > 100 µM (inactive) | 21.3 µM (inactive) | 63.1 µM (inactive) | 43.3 µM (inactive) | 44.7 µM (inactive) | > 100 µM (inactive) | 67.6 µM (inactive) | 63.5 µM (inactive) | > 100 µM (inactive)
CCOC(=O)/C=C(/C(=O)OCC)n1cc(Cl)c(=O)n(CC(=O)OCC)c1=O | 8.95 µM (inactive) | 4.14 µM (inactive) | 5.81 µM (inactive) | 5.83 µM (inactive) | 4.57 µM (inactive) | 5.13 µM (inactive) | > 25 µM (inactive) | 0.444 µM (active) | 4.61 µM (inactive) | 17.5 µM (inactive) | 3.85 µM (inactive) | 5.27 µM (inactive) | 1.15 µM (inactive) | – | > 25 µM (inactive) | 5.24 µM (inactive) | 3.94 µM (inactive) | 4.95 µM (inactive) | 1.45 µM (inactive) | > 25 µM (inactive)
